Data taken from PMC10216605, “Developing In Vitro Models to Define the Role of Direct Mitochondrial Toxicity in Frequently Reported Drug-Induced Rhabdomyolysis” (Biomedicines, 2023).
Counter-ions that a name gives are not always drawn. Like-named read-outs stand apart in the source and are kept apart here.

What was measured:
L6 cells [1] = experiment: Acute metabolic switch assay (cellular ATP content, glucose vs galactose media) in L6 differentiated myotubes; conditions: for IC50-ATPglu/IC50-ATPgal: ratio ≥ 2 = mitotoxic
Experimental: They were then seeded into collagen-coated wells (50 µg/mL in 0.02 M of acetic acid) at a density of 16,000 cells/100 μL/well (96 well plates) and 10,000 cells/100 μL/well (XF 96-well cell culture microplates). The cells were next incubated for 24 h in complete growth medium to promote adherence, after which the growth medium was removed and the cells washed twice with 1× HBSS. The L6 myoblasts were then cultured in differentiation medium consisting of high-glucose DMEM (25 mM) supplemented with L-glutamine (4 mM), sodium pyruvate (1 mM), HEPES (5 mM), and horse serum (2% v/v). Fresh differentiation medium was provided every 48 h for 7 days.
On the day of the assay, the media on the differentiated myotubes were replaced with either serum-free high-glucose (DMEM, 25 mM of glucose, 4 mM of L-glutamine, 1 mM of sodium pyruvate, and 5 mM of HEPES) or serum-free galactose (DMEM, 10 mM of galactose, 6 mM of L-glutamine, 1 mM of sodium pyruvate, and 5 mM of HEPES) media (100 µL) for 2 h (37 °C, 5% CO2). The glucose and galactose media were removed and replaced with drug-dosing solutions in either glucose or galactose media as appropriate, before incubation (2 h, 37 °C, 5% CO2). […] Vehicle control was included in each experiment.
The cellular ATP content was measured using a bioluminescence assay kit, alongside the concomitant measurement of protein using a bicinchoninic acid (BCA) assay kit to normalise ATP data to the total protein. Briefly, the cells were lysed using ATP lysis buffer (50 µL/well) and the plate was shaken (5 min). According to the manufacturer’s instructions, 40 µL of ATP reagent was added to each well containing 5 µL of cell lysate in a white 96-well plate. The […] luminescence signal was measured immediately using a plate reader (Varioskan, Thermo Scientific, Schaumburg, IL USA).

[2] = FAERS analysis of reported rhabdomyolysis cases per suspect drug; conditions: for (%) of total rhabdomyolysis cases / Number of Rhabdomyolysis Cases / Number of Rhabdomyolysis Cases (n = 6583): FAERS 2004 to 31 March 2020; for (%) of total rhabdomyolysis cases: of 27,140 cases; for Number of Rhabdomyolysis Cases: total 27,140 rhabdomyolysis cases, some cases with more than one suspected drug; for Number of Death Cases (n = 576): monotherapy rhabdomyolysis cases with fatal outcome; for (%) of monotherapy rhabdomyolysis cases: of 6583 cases; for ROR (reported odds ratio): rhabdomyolysis with suspected drug vs all other drugs in FAERS; for Number of Rhabdomyolysis Cases (n = 6583): suspected drug reported as a single drug used (monotherapy)
Experimental: (§1) Due to the quarterly updating of the database by the FDA, the searches were performed using the term “rhabdomyolysis” on one occasion to ensure the data were extracted at that specified period. All individual files were downloaded and saved from this one timepoint to specify the analysis period used in this study. Further refinement was performed using Microsoft Excel to extract only cases where the suspect drug was reported as a monotherapy, using the generic name of the suspect drugs. To ensure data accuracy, any case reported by a consumer or company underwent further checks to ensure it had not been previously reported by a healthcare provider, by confirming that no duplication of case ID was present.

L6 cells [3] = conditions: 6 h exposure
Experimental: The mitochondrial stress test allowed confirmation of mitotoxicity and further identification of the specific mechanisms through quantification of OXPHOS parameters: basal respiration (BR), ATP-linked respiration (ALR), and spare respiratory capacity (SRC). On the day of the assay, for the analysis of the acute injection of the drug on differentiated myotubes, the differentiation media was replaced with 175 µL of unbuffered Seahorse Assay media supplemented with 25 mM of glucose, 4 mM of L-glutamine, 1 mM of sodium pyruvate, and 5 mM of HEPES pre-warmed to 37 °C, then incubated in a CO2 free incubator at 37 °C for 1 h. Alternately, in the pre-treatment strategy, differentiated myotubes were pre-treated with the drug for 5 h in differentiation medium, then transferred to a CO2-free incubator at 37 °C for 1 h. Next, the differentiation media were replaced with 175 µL of unbuffered Seahorse Assay media supplemented with the constituents stated above. Briefly, using the XF^e96 instrument (Seahorse extracellular flux analyser, Agilent Technologies, Santa Clara, CA, USA), the oxygen partial pressure in each well was allowed to reach equilibrium for 10 min. The oxygen consumption rate (OCR) was measured three times at baseline; then, there was a 3 min mix for each measurement followed by a 3 min wait. […] In the acute injection method, the drug injection was only performed at the end of the basal measurement cycles, followed by the mitochondrial inhibitors described above. The duration of the assay was 120 min (acute injection) and 90 min (pre-treatment strategy). From each mitochondrial stress test was determined the OCR parameters of non-mitochondrial respiration (NMR = lowest measurement after rotenone/antimycin A); basal respiration (BR = last measurement before oligomycin − NMR); proton-leak (PL = BR − lowest respiration after oligomycin); ATP-linked respiration (ALR = BR − PL); maximum respiratory capacity (MRC = highest measurement after FCCP − NMR); and spare respiratory capacity (SRC = MRC − BR) [42, 43].

[4] = human
Experimental: as §1

[5] = Rattus norvegicus, L6, 2 h, read-out: ATP IC50 Galactose
[6] = Rattus norvegicus, L6, 2 h, read-out: ATP IC50 Glucose

Row | SMILES | (%) of total rhabdomyolysis cases [2] [%] | Number of Rhabdomyolysis Cases [2] | Number of Death Cases (n = 576) [2] | (%) of monotherapy rhabdomyolysis cases [2] [%] | ROR (reported odds ratio) [2] | Number of Rhabdomyolysis Cases (n = 6583) [2] | other results
1 | O=C1[C@H](CC[C@H](O)c2ccc(F)cc2)[C@@H](c2ccc(O)cc2)N1c1ccc(F)cc1 [Ezetimibe] | 1.9 | 501 | 6 | 2.5 | 2.6 | 166 | IC50-ATPglu/IC50-ATPgal (L6 cells [1]; L6 cells, 2 h exposure): ~1 (n/d); IC50-ATPglu/IC50-ATPgal (L6 cells [1]; L6 cells, 2 h exposure, listed as ezetimibe): 1; IC50 (L6 cells [1]; [5]): > 300 µM; IC50 (L6 cells [1]; [6]): > 300 µM
2 | OCCOCCN1CCN(C2=Nc3ccccc3Sc3ccccc32)CC1 [Quetiapine] | 2.8 | 761 | 26 | 3.0 |  | 199 | 
3 | O=C1CCc2ccc(OCCCCN3CCN(c4cccc(Cl)c4Cl)CC3)cc2N1 [Aripiprazole] | 1.5 | 419 |  |  | 0.4 |  | 
4 | O=C(CCCN1CCC(O)(c2ccc(Cl)cc2)CC1)c1ccc(F)cc1 [Haloperidol] | 1.1 | 310 |  |  | 1.3 |  | 
5 | CC(C)c1cccc(C(C)C)c1O [Propofol] | 1.6 | 434 | 70 | 2.7 | 2.2 | 179 | Mitotoxicity classification in acute metabolic switch assay (L6 cells [1]): multi-mechanistic; IC50 (L6 cells [1]; [5]): 242 ± 13.4 µM; IC50 (L6 cells [1]; [6]): > 300 µM; Classification from pattern of changes in BR, ALR and SRC (L6 cells [3]): direct inhibitors of the electron transport chain
6 | CCCCCCCCCC(=O)N[C@@H](Cc1c[nH]c2ccccc12)C(=O)N[C@H](CC(N)=O)C(=O)N[C@@H](CC(=O)O)C(=O)N[C@@H]1C(=O)NCC(=O)N[C@@H](CCCN)C(=O)N[C@@H](CC(=O)O)C(=O)N[C@H](C)C(=O)N[C@@H](CC(=O)O)C(=O)NCC(=O)N[C@H](CO)C(=O)N[C@@H]([C@H](C)CC(=O)O)C(=O)N[C@@H](CC(=O)c2ccccc2N)C(=O)O[C@@H]1C [Daptomycin] |  |  | 18 |  |  |  | IC50-ATPglu/IC50-ATPgal (L6 cells [1]; L6 cells, 2 h exposure): ~1 (n/d); IC50-ATPglu/IC50-ATPgal (L6 cells [1]; L6 cells, 2 h exposure, listed as daptomycin): 1; IC50 (L6 cells [1]; [5]): > 100 µM; IC50 (L6 cells [1]; [6]): > 100 µM; (%) of monotherapy rhabdomyolysis cases [4]: 3.5%; (%) of total rhabdomyolysis cases [4]: 1.4%; Number of Rhabdomyolysis Cases [4]: 380; Number of Rhabdomyolysis Cases (n = 6583) [4]: 227; ROR (reported odds ratio) [4]: 3.2
7 | CN(C)C(=N)N=C(N)N [Metformin] | 1.8 | 478 |  |  | 0.4 |  | 
8 | COc1ccc(C(CN(C)C)C2(O)CCCCC2)cc1 (centres unmarked) [Venlafaxine] | 1.6 | 425 |  |  | 0.5 |  | 
9 | CC(C)c1c(C(=O)Nc2ccccc2)c(-c2ccccc2)c(-c2ccc(F)cc2)n1CC[C@@H](O)C[C@@H](O)CC(=O)O [Atorvastatin] | 12.2 | 3307 | 169 | 21.1 | 4.3 | 1386 | 
10 | CC(C)c1c(C(=O)Nc2ccccc2)c(-c2ccccc2)c(-c2ccc(F)cc2)n1CC[C@@H](O)C[C@@H](O)CC(=O)O [Atorvastatin acid] |  |  |  |  |  |  | IC50-ATPglu/IC50-ATPgal (L6 cells [1]; L6 cells, 2 h exposure): ~1 (n/d); IC50-ATPglu/IC50-ATPgal (L6 cells [1]; L6 cells, 2 h exposure, listed as atorvastatin acid): 1; IC50 (L6 cells [1]; read-out: ATP IC50 Galactose, L6 cells, 2 h exposure, galactose serum-free media, mean ± S.D. (n = 3)): > 300 µM; IC50 (L6 cells [1]; read-out: ATP IC50 Glucose, L6 cells, 2 h exposure, glucose serum-free media, mean ± S.D. (n = 3)): > 300 µM
11 | NS(=O)(=O)c1cc(C(=O)O)c(NCc2ccco2)cc1Cl [Furosemide] | 1.8 | 480 |  |  | 0.8 |  | 
12 | CC(=O)Nc1ccc(O)cc1 [Acetaminophen] | 1.7 | 449 |  |  | 0.3 |  | 
13 | CN[C@H]1CC[C@@H](c2ccc(Cl)c(Cl)c2)c2ccccc21 [Sertraline] | 1.3 | 347 |  |  | 0.4 |  | 
14 | CC(C)c1nc(N(C)S(C)(=O)=O)nc(-c2ccc(F)cc2)c1/C=C/[C@@H](O)C[C@@H](O)CC(=O)O [Rosuvastatin] | 7.4 | 2008 | 47 | 17.0 | 2.9 | 1122 | IC50-ATPglu/IC50-ATPgal (L6 cells [1]; L6 cells, 2 h exposure): ~1 (n/d); IC50-ATPglu/IC50-ATPgal (L6 cells [1]; L6 cells, 2 h exposure, listed as rosuvastatin): 1; IC50 (L6 cells [1]; [5]): > 300 µM; IC50 (L6 cells [1]; [6]): > 300 µM
15 | CC[C@@H](C(N)=O)N1CCCC1=O [Levetiracetam] | 2.2 | 588 | 8 | 5.9 | 0.9 | 386 | IC50-ATPglu/IC50-ATPgal (L6 cells [1]; L6 cells, 2 h exposure): ~1 (n/d); IC50-ATPglu/IC50-ATPgal (L6 cells [1]; L6 cells, 2 h exposure, listed as levetiracetam): 1; IC50 (L6 cells [1]; [5]): > 300 µM; IC50 (L6 cells [1]; [6]): > 300 µM
16 | Nc1nnc(-c2cccc(Cl)c2Cl)c(N)n1 [Lamotrigine] | 1.2 | 314 |  |  | 0.3 |  | 
17 | COc1ccc2[nH]c([S+]([O-])Cc3ncc(C)c(OC)c3C)nc2c1 (centres unmarked) [Omeprazole] | 1.3 | 363 |  |  | 0.5 |  | 
18 | CCC(C)(C)C(=O)O[C@H]1C[C@@H](C)C=C2C=C[C@H](C)[C@H](CC[C@@H](O)C[C@@H](O)CC(=O)O)[C@H]21 [Simvastatin acid, Simvastatin hydroxy acid ammonium salt] |  |  |  |  |  |  | IC50-ATPglu/IC50-ATPgal (L6 cells [1]; L6 cells, 2 h exposure): ~1 (n/d); IC50-ATPglu/IC50-ATPgal (L6 cells [1]; L6 cells, 2 h exposure, listed as simvastatin acid): 1; IC50 (L6 cells [1]; [5]): > 300 µM; IC50 (L6 cells [1]; [6]): > 300 µM
19 | Cc1cc2c(s1)Nc1ccccc1N=C2N1CCN(C)CC1 [Olanzapine] |  |  | 23 |  |  |  | 
20 | CC(C)C[C@H](CN)CC(=O)O [Pregabalin] | 1.6 | 442 | 13 | 2.0 |  | 132 | IC50 (L6 cells [1]; [6]): > 300 µM; Classification from pattern of changes in BR, ALR and SRC (L6 cells [3]): direct inhibitors of the electron transport chain
21 | Cc1ccc(C)c(OCCCC(C)(C)C(=O)O)c1 [Gemfibrozil] | 1.6 | 442 |  |  | 15.0 |  | ROR (reported odds ratio) ([2]; listed as gemfibrozil): 15
22 | Cc1nnc2n1-c1ccc(Cl)cc1C(c1ccccc1)=NC2 [Alprazolam] | 1.1 | 290 |  |  | 0.4 |  | 
23 | CC(=O)Oc1ccccc1C(=O)O [Aspirin] | 1.2 | 313 |  |  | 0.2 |  | 
24 | CN1CCN(C2=Nc3cc(Cl)ccc3Nc3ccccc32)CC1 [Clozapine] | 1.1 | 286 | 12 | 1.8 |  | 116 | 
25 | CC[C@H]1OC(=O)[C@H](C)[C@@H](O[C@H]2C[C@@](C)(OC)[C@@H](O)[C@H](C)O2)[C@H](C)[C@@H](O[C@@H]2O[C@H](C)C[C@H](N(C)C)[C@H]2O)[C@](C)(OC)C[C@@H](C)C(=O)[C@H](C)[C@@H](O)[C@]1(C)O [Clarithromycin] | 1.6 | 427 |  |  | 1.2 |  | 
